In patent US12449415B2, “Diagnostics” (Queen Mary University of London, priority 2014, dated 2025):

Tests used:
Assay type in all cases: cell-based, human
isolated neutrophils = test: Glutamate biosensor recording of PMA-stimulated glutamate release, glutamate antagonist experiment (FIG. 1E)
Experimental: Neutrophil preparation from 15 ml of whole blood was achieved by first adding 30 ml PBS under sterile conditions. Half of the PBS/Blood mix was carefully layered on a 15 ml layer of Ficoll-Paque Plus solution in two separate 50 ml falcons using an electronic pipette. The sample was then centrifuged at 1400 rpm at room temp for 30 minutes. 15 ml of sterile blood lysis buffer was added to the pellet centrifuged at 1200 rpm, undergoing 2 lysis cycles. The remaining pellet was washed with sterile PBS, resuspended in 10 ml PBS and the cells were counted. 10 mmol/L of glucose (plasma concentration) was then added in the sample. […]
The sensors were calibrated after every run with stock solutions: 20 μM (in neutrophils) or 40 μM (in blood) of glutamate, <<insert for lactate>> 1 μM (in neutrophils) or 10 μM (in blood) of D-Serine, 10 μM (in neutrophils) or (13.3 μM) of ATP and 0.748 μM adenosine in blood only. To convert changes in the sensor current to changes in the analyte concentrations, the midpoint of the calibration signal at the end of each run and the midpoint of the peak of the net responses (measured from the extrapolated baseline) were used. […]
This experiment was carried out using isolated neutrophils or whole blood from a patient. […] A null sensor measured non-specific release of oxygen reactive species. […]

heparinised whole blood [1] = test: Acetylcholine biosensor recording of acetylcholine release in whole blood; details: 1 ml heparinised whole blood, 37° C.; FIG. 4
Experimental: 1.5 ml of the prepared sample (whole blood or isolated neutrophils in PBS/glucose) was pipetted into the temperature controlled chamber with a micro-magnetic stirrer for 5 minutes before the sensors were inserted. The sensors were held on a stereotaxic micro-manipulator with the entire sensing tip inserted in the sample, ensuring maximum analyte detection probability. Recordings were done with either all sensors simultaneously or with various combinations according to the sensor availability and aim of the experiment. Once a steady-state baseline was achieved, 100 nM of PMA or opsonised E. coli were added to the chamber, avoiding contact with the sensors to limit the noise interference. After any detected response signal levelled off, the calibrations were carried out. A control run was always carried out for each experiment where only PMA/E. coli was applied followed by a calibration. The chamber and the sensors were rinsed with PBS or distilled water before every run.
Samples of whole blood from human patients were analysed using the Sarissagold acetylcholine sensor.
PMA was added to 1 ml heparinised whole blood maintained at 37° C. (as indicated by PMA in FIG. 4). A null sensor measured non-specific release of oxygen reactive species. The accetylcholine sensor detects acetylcholine release in real time. The tips of the sensors were 2 mm under the surface of the blood. […]

heparinised whole blood [2] = test: ATP biosensor recording of ATP release in whole blood; details: 1 ml heparinised whole blood, 37° C.; FIG. 2
Experimental: (§1) The ATP sensors comprised two enzymes, glycerol kinase and glycerol-3-phosphate Oxidase, the adenosine sensor comprised of three enzymes, adenosine deaminase, nucleoside phosphorylase, and xanthine oxidase while the glutamate sensor contained glutamate oxidase. The D-Serine sensor contained D-amino acid oxidase. The ATP sensor had to be stored in 1M glycerol solution for 30 min to be able to operate.
(§2) 1.5 ml of the prepared sample (whole blood or isolated neutrophils in PBS/glucose) was pipetted into the temperature controlled chamber with a micro-magnetic stirrer for 5 minutes before the sensors were inserted. The sensors were held on a stereotaxic micro-manipulator with the entire sensing tip inserted in the sample, ensuring maximum analyte detection probability. Recordings were done with either all sensors simultaneously or with various combinations according to the sensor availability and aim of the experiment. […] After any detected response signal levelled off, the calibrations were carried out. […]
Samples of whole blood from human patients were analysed using the Sarissagold ATP sensor.
(§3) PMA was added to 1 ml heparinised whole blood maintained at 37° C. […] A null sensor measured non-specific release of oxygen reactive species. […]

heparinised whole blood [3] = test: D-serine biosensor recording of D-serine release in whole blood; details: 1 ml heparinised whole blood, 37° C.; FIG. 3
Experimental: as §1, §2
Samples of whole blood from human patients were analysed using the Sarissagold D-Serine sensor.
as §3

heparinised whole blood [4] = test: Glutamate biosensor recording of glutamate release in stimulated whole blood
Experimental: Recordings were carried out in a custom made chamber (1.7 ml maximum volume) and the temperature of the chamber was controlled by a Circulator C-85D. The sensors were connected to a Due-Stat ME200+ potentiostat (Sycopel International Ltd, Jarrow, UK) which was then connected to a Power 1401 interface for processing of the signal. The operating potential for Sarissaprobes was +600 mV and −50 mV for Sarissagold sensors (switched to +600 m V when not operating). The recordings were analysed by Spike2 software.
Blood was collected from patients or from healthy volunteers and stored in heparinised vials (local ethics approved). The samples were kept on ice and were tested within 1 h of collection. […]
Unless stated otherwise, samples of whole blood from human patients were analysed using the Sarissaprobes and Sarissagold glutamate sensors. […]

Compound | PMA-stimulated glutamate release in the presence of the antagonist (isolated neutrophils; isolated neutrophils, antagonist 100 μM added 1 minute before PMA) | response recorded using the acetylcholine sensor after addition of the stimulus (heparinised whole blood [1]) | response recorded using the ATP sensor after addition of the stimulus (heparinised whole blood [2]) | release of glutamate (isolated neutrophils; PMA added to 1 ml heparinised whole blood (so in the source), no antagonist) [μm] | response recorded using the D-serine sensor after addition of the stimulus (heparinised whole blood [3]) | response recorded using the glutamate sensor after addition of the stimulus (heparinised whole blood [4]; 1 ml heparinised whole blood, 37° C., FIG. 1A/1B) | glutamate release on subsequent stimulation (heparinised whole blood [4]; PMA added 5 minutes after opsonised E. coli, FIG. 1C)
Cc1ccc(CC2(O)CCN(CCOc3ccc(O)cc3)CC2)cc1 [CO101244] | failed to increase glutamate release |  |  |  |  |  | 
CCCCCCCCCCCCCC(=O)O[C@@H]1[C@@H](C)[C@@]2(O)[C@@H](C=C(CO)C[C@]3(O)C(=O)C(C)=C[C@@H]23)[C@@H]2C(C)(C)[C@]12OC(C)=O [PMA, phorbol myristate acetate] |  | led to an increase in the response | led to an increase in the response | ~15 | led to an increase in the response | led to an increase in the response | failed to increase glutamate release
